Laboratory results from ChEMBL document CHEMBL4616723, “Discovery of Antibacterials That Inhibit Bacterial RNA Polymerase Interactions with Sigma Factors” (J Med Chem, 2020).
In brackets after ≈: the same amount, converted by molar mass.

Legend:
Type in all cases: functional
Streptococcus pneumoniae = assay: Antibacterial activity against Streptococcus pneumoniae ATCC 49619 after 20 hrs by CLSI based-broth microdilution method; conditions: ATCC 49619, 20 h
Klebsiella pneumoniae = assay: Antibacterial activity against Klebsiella pneumoniae ATCC 700603 after 20 hrs by CLSI based-broth microdilution method; conditions: ATCC 700603, 20 h
Acinetobacter baumannii = assay: Antibacterial activity against Acinetobacter baumannii ATCC 19606 after 20 hrs by CLSI based-broth microdilution method; conditions: ATCC 19606 = CIP 70.34 = JCM 6841, 20 h
Pseudomonas aeruginosa = assay: Antibacterial activity against Pseudomonas aeruginosa ATCC 27853 after 20 hrs by CLSI based-broth microdilution method; conditions: ATCC 27853, 20 h
Enterobacter cloacae = assay: Antibacterial activity against Enterobacter cloacae ATCC 13047 after 20 hrs by CLSI based-broth microdilution method; conditions: subsp. cloacae ATCC 13047, 20 h
Escherichia coli = assay: Antibacterial activity against Escherichia coli ATCC 25922 after 20 hrs by CLSI based-broth microdilution method; conditions: ATCC 25922, 20 h

SMILES | MIC (Streptococcus pneumoniae) [µg/mL] | MIC (Klebsiella pneumoniae) [µg/mL] | MIC (Acinetobacter baumannii) [µg/mL] | MIC (Pseudomonas aeruginosa) [µg/mL] | MIC (Enterobacter cloacae) [µg/mL] | MIC (Escherichia coli) [µg/mL]
O=C(O)c1ccccc1C(=O)c1ccc(Sc2ccccn2)c([N+](=O)[O-])c1 | > 256 | > 256 | > 256 | > 256 | > 256 | > 256
O=[N+]([O-])c1cc(CNc2cccc(CO)c2)ccc1Sc1ccc(Cl)c(Cl)c1 | > 256 | > 256 | > 256 | > 256 | > 256 | > 256
COc1ccc(Nc2ccc(C(=O)c3ccccc3C(=O)O)cc2[N+](=O)[O-])cc1 | > 256 | > 256 | > 256 | > 256 | > 256 | > 256
O=C(O)c1ccccc1C(=O)c1ccc(Nc2cccc3cccnc23)c([N+](=O)[O-])c1 | > 256 | > 256 | > 256 | > 256 | > 256 | > 256
O=C(O)c1ccccc1C(=O)c1ccc(Nc2nccs2)c([N+](=O)[O-])c1 | > 256 | > 256 | > 256 | > 256 | > 256 | > 256
NC1CCCCC1Nc1ccc(C(=O)c2ccccc2C(=O)O)cc1[N+](=O)[O-] (configuration not stated) | > 256 | > 256 | > 256 | > 256 | > 256 | > 256
N#Cc1ccccc1NCc1ccc(Sc2ccc(Cl)c(Cl)c2)c([N+](=O)[O-])c1 | > 256 | > 256 | > 256 | > 256 | > 256 | > 256
NC(=O)c1cccc(NCc2ccc(Sc3ccc(Cl)c(Cl)c3)c([N+](=O)[O-])c2)c1 | > 256 | > 256 | > 256 | > 256 | > 256 | > 256
NC(=O)c1cccc(Nc2ccc(C(=O)c3ccccc3C(=O)O)cc2[N+](=O)[O-])c1 | > 256 | > 256 | > 256 | > 256 | > 256 | > 256
O=C(O)c1ccccc1C(=O)c1ccc(NCc2ccccc2F)c([N+](=O)[O-])c1 | 256 (≈ 649 µM) | > 256 | > 256 | > 256 | > 256 | > 256
O=C(Nc1ccccc1C(=O)O)c1ccc(Sc2ccc(Cl)c(Cl)c2)c([N+](=O)[O-])c1 | > 256 | > 256 | > 256 | > 256 | > 256 | > 256
O=C(O)c1ccccc1C(=O)c1ccc(Nc2cccc(Cl)c2)c([N+](=O)[O-])c1 | 256 (≈ 645 µM) | > 256 | > 256 | > 256 | > 256 | > 256
CCN(CC)C(=O)c1ccc(Sc2ccc(C(=O)c3ccccc3C(=O)O)cc2[N+](=O)[O-])c([N+](=O)[O-])c1 | 256 (≈ 489 µM) | > 256 | > 256 | > 256 | > 256 | > 256
O=C(O)c1ccccc1C(=O)c1ccc(N2CCOCC2)c([N+](=O)[O-])c1 | > 256 | > 256 | > 256 | > 256 | > 256 | > 256
CC(=O)Nc1cccc(Sc2ccc(C(=O)c3ccccc3C(=O)O)cc2[N+](=O)[O-])c1 | 256 (≈ 587 µM) | > 256 | > 256 | > 256 | > 256 | > 256
O=C(O)c1ccc(F)c(NCc2ccc(Sc3ccc(Cl)c(Cl)c3)c([N+](=O)[O-])c2)c1 | > 256 | > 256 | > 256 | > 256 | > 256 | > 256
O=C(O)c1ccccc1C(=O)c1ccc(Nc2cccc(CO)c2)c([N+](=O)[O-])c1 | > 256 | > 256 | > 256 | > 256 | > 256 | > 256
NC(=O)c1ccccc1NCc1ccc(Sc2ccc(Cl)c(Cl)c2)c([N+](=O)[O-])c1 | > 256 | > 256 | > 256 | > 256 | > 256 | > 256

Results, then the compound that gave them:

MIC (Streptococcus pneumoniae) [µg/mL] | MIC (Klebsiella pneumoniae) [µg/mL] | MIC (Acinetobacter baumannii) [µg/mL] | MIC (Pseudomonas aeruginosa) [µg/mL] | MIC (Enterobacter cloacae) [µg/mL] | MIC (Escherichia coli) [µg/mL] | SMILES
256 (≈ 529 µM) | > 256 | > 256 | > 256 | > 256 | > 256 | O=C(O)c1cc(NCc2ccc(Sc3ccc(Cl)c(Cl)c3)c([N+](=O)[O-])c2)ccc1Cl
32 (≈ 76.5 µM) | > 256 | > 256 | > 256 | > 256 | > 256 | Nc1cc(C(=O)c2ccccc2C(=O)O)ccc1Sc1ccc(Cl)c(Cl)c1
256 (≈ 553 µM) | > 256 | > 256 | > 256 | > 256 | > 256 | O=C(O)c1cccc(NC(=O)c2ccc(Sc3ccc(Cl)c(Cl)c3)c([N+](=O)[O-])c2)c1
128 (≈ 322 µM) | > 256 | > 256 | > 256 | > 256 | > 256 | O=C(O)c1ccccc1C(=O)c1ccc(Sc2ccccc2F)c([N+](=O)[O-])c1
128 (≈ 313 µM) | > 256 | > 256 | > 256 | > 256 | > 256 | Nc1ccccc1Sc1ccc(C(=O)Nc2cccc(C(=O)O)c2)cc1[N+](=O)[O-]
256 (≈ 680 µM) | > 256 | > 256 | > 256 | > 256 | > 256 | O=C(O)c1ccccc1C(=O)c1ccc(NCc2ccccc2)c([N+](=O)[O-])c1
256 (≈ 612 µM) | > 256 | > 256 | > 256 | > 256 | > 256 | CC(C)(C)c1cccc(Nc2ccc(C(=O)c3ccccc3C(=O)O)cc2[N+](=O)[O-])c1
32 (≈ 71.4 µM) | > 256 | > 256 | > 256 | > 256 | > 256 | O=C(O)c1ccccc1C(=O)c1ccc(Sc2ccc(Cl)cc2Cl)c([N+](=O)[O-])c1
256 (≈ 707 µM) | > 256 | > 256 | > 256 | > 256 | > 256 | O=C(O)c1ccccc1C(=O)c1ccc(Nc2ccccc2)c([N+](=O)[O-])c1
256 (≈ 722 µM) | > 256 | > 256 | > 256 | > 256 | > 256 | O=C(O)c1ccccc1C(=O)c1ccc(N2CCCCC2)c([N+](=O)[O-])c1
128 (≈ 292 µM) | > 256 | > 256 | > 256 | > 256 | > 256 | Cc1cccc([N+](=O)[O-])c1Sc1ccc(C(=O)c2ccccc2C(=O)O)cc1[N+](=O)[O-]
128 (≈ 313 µM) | > 256 | > 256 | > 256 | > 256 | > 256 | COc1ccccc1Sc1ccc(C(=O)c2ccccc2C(=O)O)cc1[N+](=O)[O-]
256 (≈ 647 µM) | > 256 | > 256 | > 256 | > 256 | > 256 | Nc1ccccc1Sc1ccc(CNc2ccc(C(=O)O)cc2)cc1[N+](=O)[O-]
256 (≈ 668 µM) | > 256 | > 256 | > 256 | > 256 | > 256 | Cc1occc1Sc1ccc(C(=O)c2ccccc2C(=O)O)cc1[N+](=O)[O-]
32 (≈ 73.3 µM) | > 256 | > 256 | > 256 | > 256 | > 256 | CC(C)Nc1cccc(Sc2ccc(C(=O)c3ccccc3C(=O)O)cc2[N+](=O)[O-])c1
64 (≈ 162 µM) | > 256 | > 256 | > 256 | > 256 | > 256 | Nc1ccccc1Sc1ccc(CNc2cccc(C(=O)O)c2)cc1[N+](=O)[O-]
16 (≈ 34.5 µM) | > 256 | > 256 | > 256 | > 256 | > 256 | Cc1ccc(C(=O)O)cc1NCc1ccc(Sc2ccc(Cl)c(Cl)c2)c([N+](=O)[O-])c1
64 (≈ 162 µM) | > 256 | > 256 | > 256 | > 256 | > 256 | Nc1ccccc1Sc1ccc(CNc2ccccc2C(=O)O)cc1[N+](=O)[O-]
16 (≈ 29.9 µM) | > 256 | > 256 | > 256 | > 256 | > 256 | O=C(O)c1ccc(N2CCOCC2)c(NCc2ccc(Sc3ccc(Cl)c(Cl)c3)c([N+](=O)[O-])c2)c1
128 (≈ 340 µM) | > 256 | > 256 | > 256 | > 256 | > 256 | Cc1cccc(Nc2ccc(C(=O)c3ccccc3C(=O)O)cc2[N+](=O)[O-])c1
32 (≈ 64.2 µM) | > 256 | > 256 | > 256 | > 256 | > 256 | O=C(Nc1cccc(Sc2ccc(C(=O)c3ccccc3C(=O)O)cc2[N+](=O)[O-])c1)c1ccccc1
64 (≈ 156 µM) | > 256 | > 256 | > 256 | > 256 | > 256 | Nc1ccccc1Sc1ccc(C(=O)Nc2ccccc2C(=O)O)cc1[N+](=O)[O-]
64 (≈ 132 µM) | > 256 | > 256 | > 256 | > 256 | > 256 | NS(=O)(=O)c1cccc(NCc2ccc(Sc3ccc(Cl)c(Cl)c3)c([N+](=O)[O-])c2)c1
64 (≈ 148 µM) | > 256 | > 256 | > 256 | > 256 | > 256 | O=C(O)c1ccccc1C(=O)c1ccc(Nc2ccc(Cl)c(Cl)c2)c([N+](=O)[O-])c1
